Results: patent US20250205259A1, “CLASS OF 7-((FIVE-MEMBERED HETEROCYCLIC)METHYL)-8-CARBOXYLIC ACID-BENZO CYCLIC BORATE DERIVATIVES AND USES THEREOF” (priority 2022, published 2025)
Where two headings read alike, the source gives them in different places.

What was measured:
Type in all cases: biochemical
OXA-48 = OXA-48 (Klebsiella pneumoniae, UniProt Q6XEC0); assay: Inhibitory activity on SBL, fluorescent substrate FC-5; conditions: read-out: Inhibitory activity on SBL OXA-48 (IC50 class)
NDM-5 = NDM-5 (Klebsiella pneumoniae, UniProt C7C422, M154L/V88L); assay: Inhibitory activity on MBL, fluorescent substrate FC-5
Chain of NDM-5 (C7C422 29-270 V88L/M154L): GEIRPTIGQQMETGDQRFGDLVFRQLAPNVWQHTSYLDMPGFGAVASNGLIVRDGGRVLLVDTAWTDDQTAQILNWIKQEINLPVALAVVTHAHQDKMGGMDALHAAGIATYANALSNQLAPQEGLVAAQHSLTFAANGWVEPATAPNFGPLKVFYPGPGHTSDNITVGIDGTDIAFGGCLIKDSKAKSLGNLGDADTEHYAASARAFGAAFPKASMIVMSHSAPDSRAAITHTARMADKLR

NDM-1 = NDM-1 (Klebsiella pneumoniae, UniProt C7C422); assay: as above
Chain of NDM-1 (C7C422 29-270 limits assumed): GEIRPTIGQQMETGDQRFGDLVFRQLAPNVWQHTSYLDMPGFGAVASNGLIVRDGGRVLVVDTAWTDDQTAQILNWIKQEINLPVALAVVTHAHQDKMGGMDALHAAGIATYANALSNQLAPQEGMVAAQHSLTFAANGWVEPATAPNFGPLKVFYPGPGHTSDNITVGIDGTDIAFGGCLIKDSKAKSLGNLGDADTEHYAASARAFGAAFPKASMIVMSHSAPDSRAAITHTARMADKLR

TEM-1 = TEM-1 (Escherichia coli, UniProt P62593); assay: Inhibitory activity on SBL, fluorescent substrate FC-5; conditions: read-out: Inhibitory activity on SBL TEM-1 (IC50 class)
Chain of TEM-1 (P62593 24-286 limits assumed): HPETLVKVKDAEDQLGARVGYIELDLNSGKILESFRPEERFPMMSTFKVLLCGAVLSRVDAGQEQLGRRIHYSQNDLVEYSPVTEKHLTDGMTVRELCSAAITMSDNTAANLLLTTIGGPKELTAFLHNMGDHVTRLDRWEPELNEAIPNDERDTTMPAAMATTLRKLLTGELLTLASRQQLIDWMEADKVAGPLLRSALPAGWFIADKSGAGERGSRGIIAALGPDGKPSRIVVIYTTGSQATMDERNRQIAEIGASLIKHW

SHV-12 = biological target: T1, SHV-12 (UniProt P0AD64, L31Q/G234S/E235K, species not given); assay: as above; conditions: read-out: Inhibitory activity on SBL SHV-12 (IC50 class)
T1 sequence (P0AD64 1-286 L31Q/G234S/E235K): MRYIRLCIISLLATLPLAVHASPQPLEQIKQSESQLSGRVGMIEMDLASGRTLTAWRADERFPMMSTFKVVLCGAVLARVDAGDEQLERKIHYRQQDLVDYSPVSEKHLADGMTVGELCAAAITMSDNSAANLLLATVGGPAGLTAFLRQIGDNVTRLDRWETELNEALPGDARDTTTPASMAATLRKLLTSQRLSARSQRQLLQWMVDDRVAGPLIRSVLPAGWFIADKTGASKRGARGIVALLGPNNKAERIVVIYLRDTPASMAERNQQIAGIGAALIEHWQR

VIM-1 = VIM-1 (Pseudomonas aeruginosa, UniProt A0A0F7KYQ8); assay: Inhibitory activity on MBL, fluorescent substrate FC-5
CTX-M-14 = CTX-M-14 (Escherichia coli, UniProt Q9L5C7); assay: Inhibitory activity on SBL, fluorescent substrate FC-5; conditions: read-out: Inhibitory activity on SBL CTX-M-14 (IC50 class)
Chain of CTX-M-14 (Q9L5C7 entry or part of it): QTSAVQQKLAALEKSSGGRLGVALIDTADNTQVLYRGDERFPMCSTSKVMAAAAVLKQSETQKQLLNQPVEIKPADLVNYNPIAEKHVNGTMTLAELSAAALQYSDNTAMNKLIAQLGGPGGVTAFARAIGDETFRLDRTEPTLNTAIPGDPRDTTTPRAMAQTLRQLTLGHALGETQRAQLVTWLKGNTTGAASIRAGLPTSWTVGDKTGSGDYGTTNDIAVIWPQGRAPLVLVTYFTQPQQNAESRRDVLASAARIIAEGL

IMP-1 = IMP-1 (Serratia marcescens, UniProt P52699); assay: Inhibitory activity on MBL, fluorescent substrate FC-5; conditions: read-out: Inhibitory activity on MBL IMP-1 (IC50 class)
Chain of IMP-1 (P52699 19-246 limits assumed): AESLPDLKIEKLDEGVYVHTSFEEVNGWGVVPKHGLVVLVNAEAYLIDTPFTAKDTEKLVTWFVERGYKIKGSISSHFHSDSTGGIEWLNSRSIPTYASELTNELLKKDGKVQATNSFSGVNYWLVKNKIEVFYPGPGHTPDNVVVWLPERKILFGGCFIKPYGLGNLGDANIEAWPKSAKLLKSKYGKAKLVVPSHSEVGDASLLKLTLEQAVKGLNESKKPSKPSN

VIM-2 = VIM-2 (Escherichia coli, UniProt Q5U7L7); assay: as above; conditions: read-out: Inhibitory activity on MBL VIM-2 (IC50 class)
KPC-2 = KPC-2 (Klebsiella pneumoniae, UniProt Q9F663); assay: Inhibitory activity on SBL, fluorescent substrate FC-5; conditions: read-out: Inhibitory activity on SBL KPC-2 (IC50 class)
Chain of KPC-2 (Q9F663 25-293 limits assumed): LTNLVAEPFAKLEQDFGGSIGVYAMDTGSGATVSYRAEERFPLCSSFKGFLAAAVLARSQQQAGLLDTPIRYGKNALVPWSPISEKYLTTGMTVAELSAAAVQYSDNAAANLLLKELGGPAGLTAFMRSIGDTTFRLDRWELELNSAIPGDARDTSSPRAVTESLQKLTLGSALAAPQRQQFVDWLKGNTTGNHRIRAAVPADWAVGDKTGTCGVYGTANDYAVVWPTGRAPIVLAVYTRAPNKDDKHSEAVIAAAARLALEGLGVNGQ

[1] = read-out: Inhibitory activity on MBL NDM-5 (IC50 class)
[2] = read-out: inhibitory activity at a nanomolar-level on NDM-5
[3] = read-out: Inhibitory activity on MBL NDM-1 (IC50 class)
[4] = read-out: inhibitory activity at a nanomolar-level on NDM-1
[5] = read-out: Inhibitory activity on MBL VIM-1 (IC50 class)
[6] = VIM-1 and/or VIM-2, read-out: inhibitory activity at a nanomolar-level on VIM-1 and/or VIM-2

Chain of OXA-48 (Q6XEC0 23-265 limits assumed): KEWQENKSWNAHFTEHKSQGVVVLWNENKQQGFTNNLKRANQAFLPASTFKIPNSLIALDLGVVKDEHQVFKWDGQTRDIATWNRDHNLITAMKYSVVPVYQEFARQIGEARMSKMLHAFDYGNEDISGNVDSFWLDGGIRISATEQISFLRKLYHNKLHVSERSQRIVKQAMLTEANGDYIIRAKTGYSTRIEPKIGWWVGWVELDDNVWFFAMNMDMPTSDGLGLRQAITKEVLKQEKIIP

Compound | IC50 (OXA-48) [nM] | IC50 (NDM-5; [1]) [nM] | IC50 (NDM-5; [2]) [nM] | IC50 (NDM-1; [3]) [nM] | IC50 (NDM-1; [4]) [nM] | IC50 (TEM-1) [nM] | IC50 (SHV-12) [nM] | IC50 (VIM-1; [5]) [nM] | IC50 (CTX-M-14) [nM] | IC50 (IMP-1) [nM] | IC50 (VIM-2) [nM] | IC50 (KPC-2) [nM] | IC50 (NDM-5; Inhibitory activity on MBL NDM-5 (IC50 class)) [nM] | IC50 (NDM-5; inhibitory activity at a nanomolar-level on NDM-5) [nM] | IC50 (VIM-1; [6]) [nM]
Nc1cnn(Cc2ccc3c(c2C(=O)O)OB(O)CC3)c1 [Compound 32] | < 10 | 10 to 1000 | < 1000 | 10 to 1000 | < 1000 | 10 to 1000 | 10 to 1000 | 1000 to 100000 | < 10 | 1000 to 100000 | 10 to 1000 | < 10 | – | – | –
NS(=O)(=O)Nc1cnn(Cc2ccc3c(c2C(=O)O)OB(O)CC3)c1 [Compound 34] | < 10 | – | – | 10 to 1000 | < 1000 | < 10 | 10 to 1000 | 1000 to 100000 | < 10 | 1000 to 100000 | 10 to 1000 | < 10 | 10 to 1000 | < 1000 | –
NCCNCc1cnn(Cc2ccc3c(c2C(=O)O)OB(O)CC3)c1 [Compound 35] | < 10 | 10 to 1000 | – | 1000 to 100000 | – | < 10 | 10 to 1000 | 1000 to 100000 | 10 to 1000 | 1000 to 100000 | 10 to 1000 | 10 to 1000 | – | – | –
NS(=O)(=O)NCc1cnn(Cc2ccc3c(c2C(=O)O)OB(O)CC3)c1 [Compound 36] | < 10 | 10 to 1000 | < 1000 | 10 to 1000 | < 1000 | < 10 | 10 to 1000 | 1000 to 100000 | 10 to 1000 | 1000 to 100000 | 10 to 1000 | < 10 | – | – | –
NC1(c2cnn(Cc3ccc4c(c3C(=O)O)OB(O)CC4)c2)CC1 [Compound 40] | 10 to 1000 | 10 to 1000 | – | 1000 to 100000 | – | < 10 | 10 to 1000 | 1000 to 100000 | 10 to 1000 | 1000 to 100000 | 10 to 1000 | < 10 | – | – | –
NCc1ccn(Cc2ccc3c(c2C(=O)O)OB(O)CC3)n1 [Compound 42] | 10 to 1000 | 10 to 1000 | < 1000 | 10 to 1000 | < 1000 | < 10 | 10 to 1000 | 10 to 1000 | 10 to 1000 | 1000 to 100000 | 10 to 1000 | < 10 | – | – | < 1000
O=C(O)c1c(CN2C[C@H](O)CC2=O)ccc2c1OB(O)CC2 [Compound 44] | 10 to 1000 | 10 to 1000 | < 1000 | 10 to 1000 | < 1000 | 10 to 1000 | 10 to 1000 | 10 to 1000 | 10 to 1000 | 1000 to 100000 | 10 to 1000 | 10 to 1000 | – | – | < 1000
N=C(N)NCCCc1cn(Cc2ccc3c(c2C(=O)O)OB(O)CC3)nn1 [Compound 48] | 10 to 1000 | 10 to 1000 | – | 1000 to 100000 | – | 10 to 1000 | 10 to 1000 | 1000 to 100000 | 10 to 1000 | 1000 to 100000 | 10 to 1000 | < 10 | – | – | –
N=C(N)NCCc1cnn(Cc2ccc3c(c2C(=O)O)OB(O)CC3)c1 [Compound 50] | 10 to 1000 | 10 to 1000 | – | 1000 to 100000 | – | 10 to 1000 | 10 to 1000 | 1000 to 100000 | 10 to 1000 | 1000 to 100000 | 1000 to 100000 | < 10 | – | – | –
NS(=O)(=O)NCCc1cn(Cc2ccc3c(c2C(=O)O)OB(O)CC3)nn1 [Compound 51] | < 10 | 10 to 1000 | < 1000 | 10 to 1000 | < 1000 | 10 to 1000 | 10 to 1000 | 1000 to 100000 | 10 to 1000 | 1000 to 100000 | 10 to 1000 | < 10 | – | – | –
